pIC50: −log10 of the molar value.
Target: T1, hMCH-1R (Homo sapiens, UniProt Q99705)
T1 construct: expressed in transfected cells; host or cells: CHO/Galpha 16 cells, stably transfected; membranes used
Assay: MCH-1 receptor binding test
Details: 125I-MCH binding, membranes from CHO/Galpha 16 cells stably transfected with human hMCH-1R
Experimental: Membranes from CHO/Galpha 16 cells stably transfected with human hMCH-1R are resuspended using a syringe (needle 0.6×25 mm) and diluted in test buffer (50 mM HEPES, 10 mM MgCl2, 2 mM EGTA, pH 7.00; 0.1% bovine serum albumin (protease-free), 0.021% bacitracin, 1 μg/mL aprotinin, 1 μg/mL leupeptin and 1 μM phosphoramidone) to a concentration of 5 to 15 μg/mL. […] After the incubation the reaction is filtered using a cell harvester through 0.5% PEI treated fiberglass filters (GF/B, Unifilter Packard). The membrane-bound radioactivity retained on the filter is then determined after the addition of scintillator substance (Packard Microscint 20) in a measuring device (TopCount of Packard). […] The analysis of the concentration binding curve is carried out on the assumption of one receptor binding site.

T1 sequence (Q99705 whole entry): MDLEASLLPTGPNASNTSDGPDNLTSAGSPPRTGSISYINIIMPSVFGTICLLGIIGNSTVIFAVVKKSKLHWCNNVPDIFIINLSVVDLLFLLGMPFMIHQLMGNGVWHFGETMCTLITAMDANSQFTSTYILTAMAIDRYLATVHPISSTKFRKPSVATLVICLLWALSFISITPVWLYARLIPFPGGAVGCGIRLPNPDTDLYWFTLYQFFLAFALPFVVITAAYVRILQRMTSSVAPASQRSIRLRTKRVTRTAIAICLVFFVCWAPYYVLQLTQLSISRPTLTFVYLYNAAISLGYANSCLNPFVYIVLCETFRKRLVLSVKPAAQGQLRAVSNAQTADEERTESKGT

Row | SMILES | pIC50
1 | CCCN(CC1CC1)[C@H](C)/C=C(\C)c1ccc(C#Cc2ccc(-c3ccc(Cl)cc3)cn2)cc1 [Example 15.5, ((E)-(R)-3-{4-[5-(4-chlorophenyl)pyridin-2-ylethynyl]phenyl}-1-methylbut-2-enyl)cyclopropylmethylpropylamine] | 7.60
2 | NC(=O)C1CCN([C@H]2CCN(c3ccc(C#Cc4ccc(-c5ccc(Cl)cc5)cn4)cn3)C2)CC1 [Example 6.3, (S)-1-(1-{5-[5-(4-chlorophenyl)pyridin-2-ylethynyl]pyridin-2-yl}pyrrolidin-3-yl)piperidin-4-carboxylic acid amide] | 8.43

— US20050245529A1 (Boehringer Ingelheim International GmbH, priority 2004, published 2005)
